From patent publication US20110034434A1, “PRODRUGS OF FUSED HETEROCYCLIC INHIBITORS OF D-AMINO ACID OXIDASE” (SEPRACOR INC., priority 2009, published 2011)

Legend:
[1] = system: D-serine; assay: PK-PD evaluation in rats: D-serine levels in cerebellum after oral dosing; format: in vivo; settings: rat cerebellum, 6 hours after PO dosing, dose normalized to 10 mg/kg of the acid; mean ± spread (n)
Procedure: Rats (Harlan male Sprague) (N=3) were dosed orally with an amount of test compound, suspended in 45% (w/v) hydroxy-β-cyclodextrin vehicle, dose normalized to 10 mg/kg of the corresponding carboxylic acid. Additional male cannulated rats (N=3) were dosed orally with the parent carboxylic acid, suspended in 45% (w/v) hydroxy-β-cyclodextrin vehicle, at 10 mg/kg. Animals were sacrificed at pre-determined time points (e.g., 0.5, 2 and/or 6 hours post administration) with an N=3 at each time point. At sacrifice, trunk blood was collected into tubes containing potassium EDTA, which were then centrifuged to permit isolation of plasma. The cerebellum was dissected from each animal. Plasma and cerebellum samples were stored at −80° C. until samples were analyzed using a SCIEX API2000 or SCIEX API5000 LC/MS/MS. Samples were analyzed for the amount of corresponding parent acid, D-serine, and/or the amount of test compound.
Conversion of test compounds to 4H-furo[3,2-b]pyrrole-5-carboxylic acid (“acid”; 77) in rats was evaluated according to General Procedure 12. 4H-furo[3,2-b]pyrrole-5-carboxylic acid and D-serine levels in plasma and cerebellum were measured. Animals were sacrificed at 6 hours post administration. In Table 6, “[D-serine] cerebellum” refers to D-serine levels, in nmol/g, in the rat cerebellum. In Table 6, “[acid] cerebellum” refers to the concentration, in μM, of the 4H-furo[3,2-b]pyrrole-5-carboxylic acid in the cerebellum. In Table 6, “[acid] plasma” refers to the concentration, in μM, of the 4H-furo[3,2-b]pyrrole-5-carboxylic acid in the plasma. The row labeled “acid”, denotes the data obtained from dosing 4H-furo[3,2-b]pyrrole-5-carboxylic acid. The row labeled “vehicle” denotes the data obtained from dosing vehicle, and the remaining row in the table denote the data obtained from dosing the test compounds.

[2] = Hydrolysis rate of test compounds in pH 7.4 and 2.0 aqueous solution; format: physicochemical; settings: HPLC; for Hydrolysis rate at pH 7.4: 0.05 M sodium phosphate buffer pH 7.4, over 6 hours
Procedure: 10 mM DMSO solutions of test compounds were diluted with a 0.05 M sodium phosphate buffer (pH 7.4) or water adjusted with phosphoric acid to pH 2.0, with a final concentration of 0.013 mg/mL. Samples were analyzed over either 2 or 6 hours, by HPLC.
The amount of test compound and the corresponding acid were determined. The rate of conversion of the test compound was calculated based on formation of the corresponding acid and loss of parent.
The rate of hydrolysis of test compounds to 4H-furo[3,2-b]pyrrole-5-carboxylic acid was evaluated in pH 7.4 aqueous solution over 6 hours, and in pH 2.0 aqueous solution over 2 hours, according to General Procedure 14.

Hydrolysis rate at pH 7.4 [2] | Hydrolysis rate at pH 2.0 ([2]; water adjusted with phosphoric acid to pH 2.0, over 2 hours) | Compound | [D-serine] cerebellum [1]
 |  | CC(=O)OC(OC(=O)c1cc2occc2[nH]1)C(C)C (stereo not shown) [compound 40, 1-acetoxy-2-methylpropyl 4H-furo[3,2-b]pyrrole-5-carboxylate] | 22 ± 2.7(3) nmol/g
 |  | CCCC(=O)OC(C)OC(=O)c1cc2occc2[nH]1 (stereo not shown) [compound 44, 1-(butyryloxy)ethyl 4H-furo[3,2-b]pyrrole-5-carboxylate] | 21 ± 1.3(3) nmol/g
 |  | CCC(=O)OCOC(=O)c1cc2occc2[nH]1 [compound 42, propionyloxymethyl 4H-furo[3,2-b]pyrrole-5-carboxylate] | 20 ± 1.5(3) nmol/g
 |  | CC(=O)OC(C)OC(=O)c1cc2occc2[nH]1 (stereo not shown) [compound 33, 1-acetoxyethyl 4H-furo[3,2-b]pyrrole-5-carboxylate] | 19 ± 1.4(3) nmol/g
0.21%/hr |  | CC(OC(=O)OC1CCCCC1)OC(=O)c1cc2occc2[nH]1 (stereo not shown) [compound 39, 1-(cyclohexyloxycarbonyloxy)ethyl 4H-furo[3,2-b]pyrrole-5-carboxylate] | 17 ± 2.6(3) nmol/g
 |  | CCOC(=O)c1cc2occc2n1COC(=O)C(C)C [compound 65, ethyl 4-(isobutyryloxymethyl)-4H-furo[3,2-b]pyrrole-5-carboxylate] | 11 ± 2.6(3) nmol/g
 |  | NC(=O)CNC(=O)c1cc2occc2[nH]1 [compound 57, N-(2-amino-2-oxoethyl)-4H-furo[3,2-b]pyrrole-5-carboxamide] | 5 ± 0.5(3) nmol/g
0.20%/hr | No hydrolysis | Cc1oc(=O)oc1COC(=O)c1cc2occc2[nH]1 [compound 72, (5-methyl-2-oxo-1,3-dioxol-4-yl)methyl 4H-furo[3,2-b]pyrrole-5-carboxylate] | 21 ± 3.5(9) nmol/g
 |  | O=C1OCC(OC(=O)c2cc3occc3[nH]2)O1 (stereo not shown) [compound 73, 2-oxo-1,3-dioxolan-4-yl 4H-furo[3,2-b]pyrrole-5-carboxylate] | 24 ± 2.0(2) nmol/g
 |  | CCOC(=O)c1cc2occc2n1COC(=O)c1ccccc1 [compound 59, ethyl 4-(benzoyloxymethyl)-4H-furo[3,2-b]pyrrole-5-carboxylate] | 11 ± 1.9(3) nmol/g
 |  | CC(C)COC(=O)c1cc2occc2[nH]1 [compound 7, isobutyl 4H-furo[3,2-b]pyrrole-5-carboxylate] | 19 ± 1.5(3) nmol/g
 |  | CC(C)OC(=O)OC(C)OC(=O)c1cc2occc2[nH]1 (stereo not shown) [compound 36, 1-(isopropoxycarbonyloxy)ethyl 4H-furo[3,2-b]pyrrole-5-carboxylate] | 20 ± 2.9(6) nmol/g
 |  | O=C(OCc1ccccc1)c1cc2occc2[nH]1 [compound 9, benzyl 4H-furo[3,2-b]pyrrole-5-carboxylate] | 21 ± 0.4(3) nmol/g
 |  | CC1(C)OC(=O)c2cc3occc3n21 [compound 2, 11,11-dimethyl-5,10-dioxa-1-azatricyclo[6.3.0.0^2,6]undeca-2(6),3,7-trien-9-one] | 17 ± 1.0(3) nmol/g
 |  | CC(=O)OCn1c(C(=O)O)cc2occc21 [compound 66, 4-(acetoxymethyl)-4H-furo[3,2-b]pyrrole-5-carboxylic acid] | 12 ± 0.7(3) nmol/g
 |  | CCN(CC)C(=O)COC(=O)c1cc2occc2[nH]1 [compound 23, 2-(diethylamino)-2-oxoethyl 4H-furo[3,2-b]pyrrole-5-carboxylate] | 18 ± 2.3(3) nmol/g
 |  | CN1CCN(C(=O)c2cc3occc3[nH]2)CC1 [compound 58, (4H-furo[3,2-b]pyrrol-5-yl)(4-methylpiperazin-1-yl)methanone] | 5 ± 0.3(3) nmol/g
 |  | CC(C)C(=O)OCOC(=O)c1cc2occc2[nH]1 [compound 47, isobutyryloxymethyl 4H-furo[3,2-b]pyrrole-5-carboxylate] | 22 ± 3.0(3) nmol/g
 |  | CCCOC(=O)c1cc2occc2[nH]1 [compound 4, propyl 4H-furo[3,2-b]pyrrole-5-carboxylate] | 20 ± 1.3(3) nmol/g
 |  | O=C(OCCl)c1cc2occc2[nH]1 [compound 76, chloromethyl 4H-furo[3,2-b]pyrrole-5-carboxylate] | 12 ± 1.5(3) nmol/g

Hydrolysis rate at pH 7.4 [2] | Hydrolysis rate at pH 2.0 ([2]; water adjusted with phosphoric acid to pH 2.0, over 2 hours) | Compound | [D-serine] cerebellum [1]
 |  | CCCCCCCOC(=O)c1cc2occc2[nH]1 [compound 6, heptyl 4H-furo[3,2-b]pyrrole-5-carboxylate] | 18 ± 0.7(3) nmol/g
 |  | CC(C)CCCOC(=O)c1cc2occc2[nH]1 [compound 8, 4-methylpentyl 4H-furo[3,2-b]pyrrole-5-carboxylate] | 20 ± 1.5(3) nmol/g
 |  | CCCCOC(=O)c1cc2occc2[nH]1 [compound 5, butyl 4H-furo[3,2-b]pyrrole-5-carboxylate] | 18 ± 1.2(3) nmol/g
 |  | CC1OC(=O)c2cc3occc3n21 (stereo not shown) [compound 3, 11-methyl-5,10-dioxa-1-azatricyclo[6.3.0.0^2,6]undeca-2(6),3,7-trien-9-one] | 17 ± 1.0(3) nmol/g
 |  | CN(C)CCOC(=O)c1cc2occc2[nH]1 [compound 32, 2-(dimethylamino)ethyl 4H-furo[3,2-b]pyrrole-5-carboxylate] | 9 ± 0.7(3) nmol/g
 |  | CC(OC(=O)OC(C)(C)C)OC(=O)c1cc2occc2[nH]1 (stereo not shown) [compound 37, 1-(tert-butoxycarbonyloxy)ethyl 4H-furo[3,2-b]pyrrole-5-carboxylate] | 18 ± 1.1(3) nmol/g
 |  | CCOC(=O)c1cc2occc2n1COCCOC(=O)C(N)C(C)C (stereo in doubt) [compound 68, (S)-ethyl 4-((2-(2-amino-3-methylbutanoyloxy)ethoxy)methyl)-4H-furo[3,2-b]pyrrole-5-carboxylate] | 5 ± 0.4(3) nmol/g
 |  | NC(=O)c1cc2occc2[nH]1 [compound 56, 4H-furo[3,2-b]pyrrole-5-carboxamide] | 7 ± 0.7(2) nmol/g
 |  | O=C(OCCOC(=O)c1cc2occc2[nH]1)c1cc2occc2[nH]1 [compound 55, ethane-1,2-diyl bis(4H-furo[3,2-b]pyrrole-5-carboxylate)] | 13 ± 1.1(3) nmol/g
 |  | O=C(OCOC(=O)c1cc2occc2[nH]1)c1cc2occc2[nH]1 [compound 41, methylene bis(4H-furo[3,2-b]pyrrole-5-carboxylate)] | 14 ± 0.2(3) nmol/g
 |  | O=C(OCn1ccnc1)c1cc2occc2[nH]1 [compound 28, (1H-imidazol-1-yl)methyl 4H-furo[3,2-b]pyrrole-5-carboxylate] | 19 ± 1.9(3) nmol/g
 |  | O=C(OCCn1ccnc1)c1cc2occc2[nH]1 [compound 27, 2-(1H-imidazol-1-yl)ethyl 4H-furo[3,2-b]pyrrole-5-carboxylate] | 17 ± 0.6(3) nmol/g
 |  | CC(=O)OCOC(=O)c1cc2occc2n1COC(C)=O [compound 71, acetoxymethyl 4-(acetoxymethyl)-4H-furo[3,2-b]pyrrole-5-carboxylate] | 14 ± 0.9(3) nmol/g
 |  | CCC(OC(C)=O)OC(=O)c1cc2occc2[nH]1 (stereo not shown) [compound 45, 1-acetoxypropyl 4H-furo[3,2-b]pyrrole-5-carboxylate] | 22 ± 1.9(3) nmol/g
 |  | CCOC(=O)c1cc2occc2n1COC(C)=O [compound 64, ethyl 4-(acetoxymethyl)-4H-furo[3,2-b]pyrrole-5-carboxylate] | 14 ± 3.6(3) nmol/g
 |  | CC(C)C(=O)OCn1c(C(=O)O)cc2occc21 [compound 67, 4-(isobutyryloxymethyl)-4H-furo[3,2-b]pyrrole-5-carboxylic acid] | 14 ± 0.9(3) nmol/g
 |  | O=C(OCn1c(C(=O)O)cc2occc21)c1ccccc1 [compound 60, 4-(benzoyloxymethyl)-4H-furo[3,2-b]pyrrole-5-carboxylic acid] | 13 ± 1.1(3) nmol/g
 |  | CC(=O)OCOC(=O)c1cc2occc2[nH]1 [compound 38, acetoxymethyl 4H-furo[3,2-b]pyrrole-5-carboxylate] | 19 ± 4.4(4) nmol/g
 |  | O=C(OC1OC(=O)c2ccccc21)c1cc2occc2[nH]1 (stereo not shown) [compound 74, 3-oxo-1,3-dihydroisobenzofuran-1-yl 4H-furo[3,2-b]pyrrole-5-carboxylate] | 13 ± 1.2(3) nmol/g
 |  | CCC(=O)OC(C)OC(=O)c1cc2occc2[nH]1 (stereo not shown) [compound 34, 1-(propionyloxy)ethyl 4H-furo[3,2-b]pyrrole-5-carboxylate] | 20 ± 1.7(3) nmol/g
